The target in data set [1] is T1, Calpain-1 catalytic subunit (Homo sapiens) (UniProt P07384).
T1 sequence (whole entry): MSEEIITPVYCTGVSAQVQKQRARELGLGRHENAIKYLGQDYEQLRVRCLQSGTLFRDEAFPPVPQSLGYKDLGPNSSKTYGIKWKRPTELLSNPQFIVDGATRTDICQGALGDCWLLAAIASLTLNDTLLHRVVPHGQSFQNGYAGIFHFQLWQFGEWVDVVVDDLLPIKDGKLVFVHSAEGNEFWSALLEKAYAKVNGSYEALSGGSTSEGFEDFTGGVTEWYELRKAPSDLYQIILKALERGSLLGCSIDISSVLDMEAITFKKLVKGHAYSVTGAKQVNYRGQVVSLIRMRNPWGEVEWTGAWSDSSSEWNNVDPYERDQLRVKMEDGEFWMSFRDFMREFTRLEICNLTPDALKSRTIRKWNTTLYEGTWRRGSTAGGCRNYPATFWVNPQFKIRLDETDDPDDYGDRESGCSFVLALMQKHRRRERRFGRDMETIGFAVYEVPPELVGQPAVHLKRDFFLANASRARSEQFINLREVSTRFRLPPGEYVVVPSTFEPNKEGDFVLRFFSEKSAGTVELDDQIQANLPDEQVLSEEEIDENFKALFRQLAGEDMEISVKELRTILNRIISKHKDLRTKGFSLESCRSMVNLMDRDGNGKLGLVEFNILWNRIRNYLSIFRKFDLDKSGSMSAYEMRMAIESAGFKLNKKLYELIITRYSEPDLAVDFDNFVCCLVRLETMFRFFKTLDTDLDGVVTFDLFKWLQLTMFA
As to the kind of experiment: Inhibition of calpain (unknown origin) at 1 uM using Suc-LY-AMC as fluorogenic substrate after 60 mins by spectrofluorometric analysis relative to calpeptin.

Data set [2] concerns the target T2, Calpain-1 catalytic subunit (Homo sapiens, UniProt P07384).
T2 sequence (P07384 whole entry): T1 sequence (whole entry)
The experiment in a line: Inhibition of calpain (unknown origin) using Suc-LY-AMC as fluorogenic substrate after 60 mins by spectrofluorometric analysis.

Data set [3] has as its target T1, Calpain-1 catalytic subunit (Homo sapiens). The experiment in a line: Uncompetitive inhibition of calpain (unknown origin) at 1 to 10 uM using Suc-LY-AMC as fluorogenic substrate after 60 mins by Lineweaver-Burk plot analysis.
Data set [4] concerns HK-2. The experiment in a line: Cytoprotective activity against NaN3-induced apoptosis in human HK2 cells at 0.1 to 10 uM pre-incubated with NaN3 for 30 mins followed by 24 hrs recovery with compound propidium iodide staining-based flow cytometric analysis. Type of data set: functional, cell-based.
Data set [5] deals with HK-2. As to the kind of experiment: Cytotoxicity against human HK2 cells at 0.1 to 10 uM after 24 hrs by MTT assay. The format is cell-based. To be noted: hk-2, 24 h. (In general: Formazan colour is commonly taken as a measure of viable cells.)
For data set [6], the system named is HK-2. As to the kind of experiment: Cytoprotective activity against NaN3-induced apoptosis in human HK2 cells at 1 uM pre-incubated with 200 mM NaN3 for 30 mins followed by 24 hrs recovery with compound propidium iodide staining-based flow cytometric analysis (reference value: 27.3 +/- 4.9%). Type of data set: functional. In general terms: In flow cytometry, cells or beads pass a laser one at a time.

Data set [7] deals with HK-2. As to the kind of experiment: Induction of apoptosis in human HK2 cells at 1 uM after 24 hrs by propidium iodide staining-based flow cytometric analysis (reference value: 3.8 +/- 1%). The format is cell-based. Particulars: hk-2, 24 h.

Molecules are shown by their SMILES. Active and inactive are the calls of the source. The calls are words filed in the database; no cut-off is given here.

Usually inhibition stands for the drop in the measured response relative to a control, in per cent. One may read the IC50 as the midpoint of a concentration-inhibition curve. Higher therefore signals a need for much substance. For the compound `COCCCN/C(=C1/N=CN(CCOC)C1=O)c1cc2ccccc2[nH]1`, the inhibition in data set [1] worked out at 71.8%. In addition, the IC50 in data set [2] was 1020 nM.
In the same order, the values of `COCCN/C(=C1/N=CN(CCOC)C1=O)c1[nH]c2ccccc2c1I` are 76.8% and 1080 nM.
Regarding `COCCN/C(=C1/N=C(c2ccccc2)N(CCOC)C1=O)c1cc2ccccc2[nH]1`, the inhibition in data set [1] was 21.5%. Further, the IC50 in data set [2] is more than 1000 nM.
Consider `COCCN/C(=C1/N=CN(CCOC)C1=O)c1cc2cccnc2[nH]1`, for which the inhibition in data set [1] worked out at 79.4%. In addition, in data set [2], it took 380 nM to reach half-maximal inhibition (IC50).
For `CCCCN/C(=C1/N=CN(CCOC)C1=O)c1cc2ccccc2[nH]1`, the inhibition in data set [1] turned out to be 75.4%. Half-maximal inhibition in data set [2] (IC50) was put at 350 nM.
In turn, `CCCCN/C(=C1/N=CN(CCCC)C1=O)c1cc2ccccc2[nH]1` registered an inhibition in data set [1] of 14%.
`CC(C)N/C(=C1/N=CN(C(C)C)C1=O)c1cc2ccccc2[nH]1`: the inhibition in data set [1] was 57.8%. In data set [2], this compound gave an IC50 of more than 1000 nM.
On to `COCCN/C(=C1/N=C(C)N(CCOC)C1=O)c1cc2ccccc2[nH]1`, for which the inhibition in data set [1] stood at 93%. In data set [2], the IC50 came out at 20 nM.
In data set [1], `O=C1/C(=C(\NCc2ccccc2)c2cc3cccnc3[nH]2)N=CN1Cc1ccccc1` showed an inhibition of 11.7%.
In data set [1], `COCCN1C=N/C(=C(/NCCN(C)C)c2cc3ccccc3[nH]2)C1=O` had an inhibition of 64.6%. Moreover, the half-maximal inhibitory concentration (IC50) in data set [2] was more than 1000 nM.
`COCCN/C(=C1/N=CN(CCOC)C1=O)c1cc2ccccc2[nH]1` displayed an inhibition in data set [1] of 73.7%. For the same compound, the inhibition entry in data set [3] was “Active”. For the same compound, the midpoint of inhibition in data set [2], the IC50, lay at 460 nM. Moreover, the result with HK-2 [4] was Active. Moreover, the Activity result in the data set on HK-2 [5] was “Non-Toxic”.
Compound `O=C1/C(=C(\NC2CCCCC2)c2cc3cccnc3[nH]2)N=CN1C1CCCCC1` showed an inhibition in data set [1] of 4.5%.
Consider `O=C1/C(=C(\NCc2ccccc2)c2cc3ccccc3[nH]2)N=CN1Cc1ccccc1`, for which the inhibition in data set [1] turned out to be 28.2%.
Turning to `CCCC[C@@H](C=O)NC(=O)[C@H](CC(C)C)NC(=O)OCc1ccccc1` [CALPEPTIN], the Activity came out at 9.9% with HK-2 [6] and 5.9% with HK-2 [7].
Take `COCCN/C(=C1/N=CN(CCOC)C1=O)c1[nH]c2ccccc2c1Cl`: the inhibition in data set [1] stood at 71.9%. In data set [2], this compound came in with an IC50 of more than 1000 nM.
Compound `CC(C)N/C(=C1/N=CN(C(C)C)C1=O)c1cc2cccnc2[nH]1` yielded an inhibition in data set [1] of 37.2%.
In turn, `COCCN/C(=C1/N=CN(CCOC)C1=O)c1[nH]c2ccccc2c1Br` gave an inhibition in data set [1] of 62.9%. In data set [2], this compound showed an IC50 of more than 1000 nM.
As to `O=C1/C(=C(\NC2CCCCC2)c2cc3ccccc3[nH]2)N=CN1C1CCCCC1`, in data set [1], the inhibition turned out to be 9%.

The values are drawn from ChEMBL document CHEMBL4261583, “Discovery of potent calpain inhibitors based on the azolo-imidazolidenone scaffold” (Eur J Med Chem, 2018).
